# Measurements reported in patent US20230150980A1, “COLLAGEN 1 TRANSLATION INHIBITORS AND METHODS OF USE THEREOF” (Anima Biotech Inc., priority 2020, published 2023).
# Counter-ions that a name gives are not always drawn.
# Tested on: collagen 1
# Assay: WI-38 collagen 1 inhibition assay (anti-Collagen I immunofluorescence);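 further: minus sign means inactive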
# Type: cell-based
# Conditions: cellular EC50, WI-38 human lung fibroblasts, values are LogEC50 classes
# Description: WI-38 cells (ATCC® CCL-75™) were maintained in MEM EAGLE (NEAA) W. GLUTAMIN (Biological Industries, Cat. 06-1040-15-1A) containing 10% fetal bovine serum (FBS) and 1% Penicillin-Streptomycin Solution. To synchronize the cells (cell cycle synchronization) prior to induction of collagen synthesis, the cells were starved using DMEM-low glucose supplemented with 0.25% FBS for two hours and then without FBS for 24 hours. To induce collagen synthesis, the cells were treated with a collagen induction cocktail for the indicated time. Compounds were added with induction.
# Cells in 96-well or 384-well plates were fixed for 20 min in 4% paraformaldehyde (PFA, ENCO, Cat. sc-281692). Following two washes with 1×PBS, cells were treated with hydrogen peroxide (Acros, Cat: 7722-84-1) for 10 minutes and then washed twice with 1×PBS. Cells were then incubated over-night at 4° C. with Anti-Collagen I (Sigma-Aldrich, Cat: C 2456) antibody and washed three times with 1×PBS. Cell were then incubated with a suitable secondary fluorescently-tagged antibody and nuclei stained with DAPI, for 1 hour, and then washed 3 times with 1×PBS.
# Cell images were taken with Operetta (Perkin Elmer, USA), a wide-field fluorescence microscope at 20× magnification. After acquisition, the images were transferred to Columbus software (Perkin-Elmer) for image analysis. In Columbus, cells were identified by their nucleus, using the “Find Nuceli” module and cytoplasm was detected based on the secondary antibody channel. Subsequently, the fluorescent signal was enumerated in the identified cell region. Data was exported to a data analysis and visualization software, Tibco Spotfire, USA.
row,Compound,COL1 Efficacy (LogEC50)
1,"c1ccc2[nH]c(CN3CCN(c4ccnc5[nH]ccc45)CC3)cc2c1 [compound 242, 4-[4-(1H-indol-2-ylmethyl)piperazin-1-yl]-1H-pyrrolo[2,3-b]pyridine]",+ (+: >−5)
2,"Clc1cccc2[nH]c(CN3CCN(c4ccncc4)CC3)cc12 [compound 243, 4-chloro-2-[[4-(4-pyridyl)piperazin-1-yl]methyl]-1H-indole]",−
3,"O=C(c1cc2ccccc2[nH]1)N1CCN(c2ccncc2)CC1 [compound 244, (1H-indol-2-yl)(4-(pyridin-4-yl)piperazin-1-yl)methanone]",+ (+: >−5)
4,"Clc1ccc2[nH]c(CN3CCN(c4ccncc4)CC3)cc2c1 [compound 245, 5-chloro-2-[[4-(4-pyridyl)piperazin-1-yl]methyl]-1H-indole formate]",−
5,"Nc1ccc2[nH]c(CN3CCN(c4ccncc4)CC3)cc2c1 [compound 246, 2-[[4-(4-pyridyl)piperazin-1-yl]methyl]-1H-indol-5-amine]",++ (++: −5 to −6)
6,"Clc1cccc2cc(CN3CCN(c4ccncc4)CC3)[nH]c12 [compound 247, 7-chloro-2-[[4-(4-pyridyl)piperazin-1-yl]methyl]-1H-indole]",+++ (+++: <−6)
7,"Clc1c(CN2CCN(c3ccncc3)CC2)[nH]c2ccccc12 [compound 248, 3-chloro-2-[[4-(4-pyridyl)piperazin-1-yl]methyl]-1H-indole]",+++ (+++: <−6)
8,"O=C(Nc1ccc2[nH]c(CN3CCN(c4ccncc4)CC3)cc2c1)c1ccccc1 [compound 249, N-[2-[[4-(4-pyridyl)piperazin-1-yl]methyl]-1H-indol-5-yl]benzamide]",+++ (+++: <−6)
9,"O=C(Nc1ccccc1)c1ccc2[nH]c(CN3CCN(c4ccncc4)CC3)cc2c1 [compound 250, N-phenyl-2-[[4-(4-pyridyl)piperazin-1-yl]methyl]-1H-indole-5-carboxamide]",+ (+: >−5)
10,"CS(=O)(=O)Nc1ccc2[nH]c(CN3CCN(c4ccncc4)CC3)cc2c1 [compound 251, N-[2-[[4-(4-pyridyl)piperazin-1-yl]methyl]-1H-indol-5-yl]methanesulfonamide]",+ (+: >−5)
11,"Cc1ccc2[nH]c(CN3CCN(c4ccncc4)CC3)cc2c1 [compound 252, 5-methyl-2-[[4-(4-pyridyl)piperazin-1-yl]methyl]-1H-indole]",++ (++: −5 to −6)
12,"c1ccc2[nH]c(CN3CCN(c4ccncc4)CC3)nc2c1 [compound 253, 2-[[4-(4-pyridyl)piperazin-1-yl]methyl]-1H-benzimidazole]",++ (++: −5 to −6)
13,"Cc1ncnc(N2CCN(Cc3nc4ccccc4s3)CC2)c1C [compound 254, 2-[[4-(5,6-dimethylpyrimidin-4-yl)piperazin-1-yl]methyl]-1,3-benzothiazole]",+++ (+++: <−6)
14,"FC(F)(F)c1ccc2cc(CN3CCN(c4ccncc4)CC3)[nH]c2c1 [compound 255, 2-[[4-(4-pyridyl)piperazin-1-yl]methyl]-6-(trifluoromethyl)-1H-indole]",+++ (+++: <−6)
15,"N#Cc1ccc2[nH]c(CN3CCN(c4ccncc4)CC3)cc2c1 [compound 256, 2-[[4-(4-pyridyl)piperazin-1-yl]methyl]-1H-indole-5-carbonitrile]",+++ (+++: <−6)
16,"Cc1ncnc(N2CCN(Cc3nc4ccccc4[nH]3)CC2)c1C [compound 257, 2-[[4-(5,6-dimethylpyrimidin-4-yl)piperazin-1-yl]methyl]-1H-benzimidazole]",++ (++: −5 to −6)
17,"CC(=O)Nc1ccc2[nH]c(CN3CCN(c4ccncc4)CC3)cc2c1 [compound 258, N-[2-[[4-(4-pyridyl)piperazin-1-yl]methyl]-1H-indol-5-yl]acetamide]",++ (++: −5 to −6)
